Experimental data published in US20240277708A1, “Use of [1,2,4] Triazolo [4,3-B] Pyridazine Derivative For Preventing and Treating Senescence and Senescence-Related Diseases” (The Eighth Affiliated Hospital, Sun Yat-Sen University, priority 2023, published 2024).

Assays:
BJ cells = assay: VP16-induced cellular senescence, SA-β-gal staining, BJ cells; format: cell-based, Human; settings: C1632 120 μM, VP16 40 μM for 4-7 days, FIG. 1A, 1B
Method: (§1) MRC5 and BJ cells were cultured in DMEM low-glucose medium containing 10% FBS. The cells were passaged or plated at a ratio of 1:3.0.5×10^5 cells were plated in 12-well plates and in the next day treated with VP16 at a final concentration of 40 μM for 4-7 days to induce cellular senescence. A cellular senescence model was constructed. While inducing cellular senescence, C1632 with a final concentration of 120 μM is added. The effect of C1632 on the senescence of BJ and MRC5 cells was detected by SA-β-gal staining, and the effect of C1632 on cellular senescence was studied.

MRC5 cells = assay: VP16-induced cellular senescence, SA-β-gal staining, MRC5 cells; format: cell-based, Human; settings: C1632 120 μM, VP16 40 μM for 4-7 days, FIG. 1A, 1C
Method: as §1

TERC−/− G4 mice = assay: TERC−/− G4 senescence mouse model: survival and lung immunohistochemistry; format: in vivo
Method: Paraffin sections were melted at 65° C. for 1 h, rehydrated by rinsing in xylene for 10 min, xylene for 10 min, absolute ethanol for 3 min, 95% ethanol for 3 min, 85% ethanol for 3 min, 70% ethanol for 3 min and water, followed by two rinses with PBS for 5 min each. The sections were blocked with 3% hydrogen peroxide (in methanol) for 10 min, and then washed twice with PBS for 5 min each time. Then the sections were put into antigen retrieval buffer (pH 6.0) and heat by microwave for 10 min to retrieve antigen, then, slowly cool the solution at room temperature for 1 h, and wash the solution twice with PBS for 5 min each time. The sections were blocked with 10% goat serum for 1 h, incubated overnight with the primary antibodies at 4° C. in the dark, washed twice with PBS for 5 min each time, incubated with the secondary antibodies at room temperature in the dark for 30 min, and washed twice with PBS for 5 min each time. The sections were subjected to DAB color development and hematoxylin staining, and then rinsed in tap water for 8 min to produce a blue color. The sections were dehydrated with gradient alcohol, dried, and sealed with neutral gum.
1, TERC−/−G4 senescence mouse model: Mice had very long telomere length, and it took 3-6 generations of breeding to develop a premature senescence phenotype after telomerase knockout. TERC+/−mice were screened for TERC+/−mice as breeding protection. The first generation of TERC−/− mice was G1 mice. G1 mice were mated with each other to give birth to G2 mice, which continued to reproduce until G4. At this time, mice had very short telomeres and could develop senescence phenotype at 3-4 months of age.
2, Genotype identification of TERC knockout mice: Small segments of tails were cut from the identified mice and digested in 10 mM Tris-HCl 0.5% SDS 1 mM EDTA pH8.0 buffer containing 0.4 mg/mL proteinase K at 65° C. for 2 hours, and then 0.5 μL digestive solution was used as a template for PCR amplification. PCR products which were 250 bp indicated wild-type and 180 bp indicated TERC knockdown.
3, One-month-old G4 mice were given 68 mg/kg C1632 once a week, with 10 mice in each group.
4, Since senescent cells were mainly eliminated by immune cells in vivo, in addition to inhibiting the generation of senescent cells, the inventors also examined the effect of C1632 on the immune microenvironment of senescent lung tissue.

senescent TC-1 cells = assay: T cell killing assay (LDH release) on bleomycin-induced senescent TC-1 cells with immune cells from treated IPF mice; format: cell-based, mouse; settings: ratio 1:50, 4 h
Method: 1, The senescence of TC-1 cells was induced with bleomycin, and the senescence of TC-1 cells was reflected through SA-β-Gal staining (FIG. 4A).
2, T cell killing assay: Bleomycin-induced senescent TC1 cells were plated at 10, 000/well in 96-well plates. The cell culture supernatant was discarded the next day, and then, PBMCS, CD3^+ T cells, and CD8^+ T cells isolated from normal mice, saline treated idiopathic pulmonary fibrosis (IPF) mice and C1632-treated IPF mice were add at a ratio of 1:50. After incubation at 37° C. for 4 h, the supematantwas obtained after centrifugation. LDH enzyme was released from the killed senescent cells, and the killing effect of immune cells on senescent cells was detected by LDH kit. Bleomycin at a dose of 2 mg/kg was sprayed into the lungs of mice to construct IPF mouse model, each group of the above experiments had at least 6 mice.
Isolation and culture of CD8^+ T cells: Mouse spleens were ground under sterile conditions and filtered through a 200-mesh sieve. The filtered cells were sorted by CD8^+ T cell isolation kit (biolegend). The sorted T cells were cultured in PRMI1640 medium containing 10% FBS, 5 μg/mL anti-mouse CD28 antibody (biolegend), and 10 ng/mL IL-2 in the plates coated overnight with 5 μg/mL CD3 antibody (biolegend) until use.

CKD mice (C57BL/6 male) = assay: Purine (AP) feed-induced chronic kidney disease (CKD) mouse model; format: in vivo; settings: 68 mg/kg twice a week
Text: The protocol for constructing a chronic kidney disease (CKD) mouse model in this example was as follows: 8-week-old C57BL/6 male mice were fed with a feed containing 2‰ purine for 1 month, then, fed with a feedcontaining 1.5‰ purine for 3 months. There were at least 10 mice in each group.
The mice were divided into three groups: (1) normal group; (2) AP+Saline group; (3) AP+C1632 group, 10 mice in each group. The CKD mice in group (3) were fed with a feed containing 2‰ AP for 1 month and then treated with C1632. C1632 was administered twice a week at a dose of 68 mg/kg of body weight each time.
The mice were divided into three groups: (1) normal group; (2) AP+saline group; (3) AP+C1632 group, 10 mice in each group. The CKD mice in group […] were fed with a feed containing 2‰ AP for 1 month and then treated with C1632. C1632 was administered twice a week at a dose of 68 mg/kg of body weight each time. During the subsequent 83 days of treatment, the survival of the mice was counted.
The mice were divided into three groups: (1) normal group; (2) AP+saline group; (3) AP+C1632 group, 10 mice in each group. The CKD mice in group (2) and group (3) were fed with a feed containing 2‰ AP for 1 month and then treated with C1632. C1632 was administered twice a week at a dose of 68 mg/kg of body weight each time. After 3 months, the mice were sacrificed, and the kidneys were removed for Masson staining.

Compound: CC(=O)N(C)c1cccc(-c2ccc3nnc(C)n3n2)c1 [C1632]
- VP16-induced senescence (β-gal-positive cell rate) in BJ cells (BJ cells): inhibits VP16-induced senescence
- VP16-induced senescence (β-gal-positive cell rate) in MRC5 cells (MRC5 cells): inhibits VP16-induced senescence
- Life span of TERC−/− G4 mice (TERC−/− G4 mice; 68 mg/kg once a week, survival curves FIG. 2A): greatly extended the life span
- Mice still surviving when all control mice had died (TERC−/− G4 mice; TERC−/− G4 mice, 68 mg/kg once a week from one month of age, 3 and a half months after the experiment, FIG. 2A): 80%
- Immunosuppressive T cell marker FOXP3 in senescent lung tissue (immunohistochemistry) (TERC−/− G4 mice; lung tissues from senescence mice, FIG. 3): reduces the immunosuppressive T cell marker FOXP3
- Lung tissue senescence (expression of senescence markers p16 and p21, immunohistochemistry) (TERC−/− G4 mice; lungs of TERC−/− G4 mice, 68 mg/kg once a week, FIG. 2B): significantly inhibited lung tissue senescence
- Killing activity of CD3+ T cells against senescent TC-1 cells (LDH release) (senescent TC-1 cells; CD3+ T cells from C1632-treated IPF mice vs saline-treated IPF mice, FIG. 4C): significantly enhanced killing activity
- Killing activity of CD8+ T cells against senescent cells (LDH release) (senescent TC-1 cells; CD8+ T cells from C1632-treated IPF mice vs normal mice and saline-treated IPF mice, FIG. 4D): significantly higher
- Killing activity of PBMC against senescent TC-1 cells (LDH release) (senescent TC-1 cells; PBMC from C1632-treated IPF mice vs saline-treated IPF mice, FIG. 4B): significantly enhanced killing activity
- Mortality of CKD model mice (CKD mice (C57BL/6 male); 83 days of treatment, FIG. 13): significantly reduces the mortality
- Collagen fibers in the kidney, Masson staining (kidney fibrosis) (CKD mice (C57BL/6 male); after 3 months, FIG. 14): significantly inhibits the level of collagen fibers
- Weight loss in CKD mice (CKD mice (C57BL/6 male); vs control (saline) mice, FIG. 12): significantly inhibits weight loss
